In the NIST ThermoML archive (doi:10.1021/acs.jced.8b01120):
“And” between values parts separate entries of the source, which are not always exact repeats. Equal entries are not always repeated. Numbers after ± are expanded uncertainties.

Assays:
[1] = 100 kPa, Liquid; for speed of sound: Single path-length method; for mass density: Vibrating tube method
[2] = xn = mol fraction of the nth substance listed; details: 100 kPa, Liquid; for speed of sound: Single path-length method; for mass density: Vibrating tube method

Row | SMILES | speed of sound ([1]; 293.15 K) [m/s] | mass density ([1]; 293.15 K) | speed of sound ([1]; 298.15 K) [m/s] | mass density ([1]; 298.15 K) | speed of sound ([1]; 303.15 K) [m/s] | mass density ([1]; 303.15 K) | speed of sound ([1]; 308.15 K) [m/s] | mass density ([1]; 308.15 K) | speed of sound ([1]; 313.15 K) [m/s] | mass density ([1]; 313.15 K) | speed of sound ([2]; 293.15 K, x2 = 0) [m/s] | mass density ([2]; 293.15 K, x2 = 0) [kg/m3] | speed of sound ([2]; 298.15 K, x2 = 0) [m/s] | mass density ([2]; 298.15 K, x2 = 0) [kg/m3] | speed of sound ([2]; 303.15 K, x2 = 0) [m/s] | mass density ([2]; 303.15 K, x2 = 0) [kg/m3] | speed of sound ([2]; 308.15 K, x2 = 0) [m/s] | mass density ([2]; 308.15 K, x2 = 0) [kg/m3] | speed of sound ([2]; 313.15 K, x2 = 0) [m/s] | mass density ([2]; 313.15 K, x2 = 0) [kg/m3] | further results
1 | CCCCOC(C)=O [butyl ethanoate] | 1211.6 ± 4 | 881.54 ± 2 kg/m3 | 1191.5 ± 4 | 876.399 ± 2 kg/m3 | 1172.4 ± 4 | 871.235 ± 2 kg/m3 | 1153.9 ± 4 | 866.05 ± 2 kg/m3 | 1131.5 ± 4 | 860.84 ± 2 kg/m3 | – | – | – | – | – | – | – | – | – | – | –
2 | CCCCOC(C)=O [butyl ethanoate] + CCCCN(CCCC)CCCC | – | – | – | – | – | – | – | – | – | – | 1211.6 ± 4 | 881.54 ± 2 | 1191.5 ± 4 | 876.399 ± 2 | 1172.4 ± 4 | 871.235 ± 2 | 1153.9 ± 4 | 866.05 ± 2 | 1131.5 ± 4 | 860.84 ± 2 | –
3 | CCOC(C)=O [ethyl acetate] | 1164.3 ± 4 | 900.882 ± 2 kg/m3 | 1142.9 ± 4 | 894.79 ± 2 kg/m3 | 1119.4 ± 4 | 888.656 ± 2 kg/m3 | 1097.2 ± 4 | 882.475 ± 2 kg/m3 | 1075 ± 4 | 876.247 ± 2 kg/m3 | – | – | – | – | – | – | – | – | – | – | –
4 | CCOC(C)=O [ethyl acetate] + CCCCN(CCCC)CCCC | – | – | – | – | – | – | – | – | – | – | 1164.3 ± 4 | 900.882 ± 2 | 1142.9 ± 4 | 894.79 ± 2 | 1119.4 ± 4 | 888.656 ± 2 | 1097.2 ± 4 | 882.475 ± 2 | 1075 ± 4 | 876.247 ± 2 | –
5 | COC(C)=O [methyl ethanoate] | 1180.4 ± 4 | 935.01 ± 2 kg/m3 | 1157.5 ± 4 | 928.458 ± 2 kg/m3 | 1134.9 ± 4 | 921.85 ± 2 kg/m3 | 1109.2 ± 4 | 915.16 ± 2 kg/m3 | 1089.6 ± 4 | 908.49 ± 2 kg/m3 | – | – | – | – | – | – | – | – | – | – | –
6 | COC(C)=O [methyl ethanoate] + CCCCN(CCCC)CCCC | – | – | – | – | – | – | – | – | – | – | 1180.4 ± 4 | 935.01 ± 2 | 1157.5 ± 4 | 928.458 ± 2 | 1134.9 ± 4 | 921.85 ± 2 | 1109.2 ± 4 | 915.16 ± 2 | 1089.6 ± 4 | 908.49 ± 2 | –
7 | CCCCCOC(C)=O [pentyl ethanoate] | 1243 ± 4.1 | 876.248 ± 2 kg/m3 | 1220.7 ± 4.1 | 871.32 ± 2 kg/m3 | 1196.8 ± 4.1 | 865.782 ± 2 kg/m3 | 1174.2 ± 4.1 | 860.581 ± 2 kg/m3 | 1152.3 ± 4.1 | 855.357 ± 2 kg/m3 | – | – | – | – | – | – | – | – | – | – | –
8 | CCCOC(C)=O [propyl ethanoate] | 1190.3 ± 4.5 | 888.964 ± 2.1 kg/m3 | 1164.2 ± 4.5 | 883.369 ± 2.1 kg/m3 | 1145 ± 4.5 | 877.422 ± 2.1 kg/m3 | 1123.7 ± 4.5 | 871.784 ± 2.1 kg/m3 | 1102.3 ± 4.5 | 866.115 ± 2.1 kg/m3 | – | – | – | – | – | – | – | – | – | – | –
9 | CCCOC(C)=O [propyl ethanoate] + CCCCN(CCCC)CCCC | – | – | – | – | – | – | – | – | – | – | 1190.3 ± 4.5 | 888.964 ± 2.1 | 1164.2 ± 4.5 | 883.369 ± 2.1 | 1145 ± 4.5 | 877.422 ± 2.1 | 1123.7 ± 4.5 | 871.784 ± 2.1 | 1102.3 ± 4.5 | 866.115 ± 2.1 | –
10 | CCCCN(CCCC)CCCC [tributylamine] | 1264.2 ± 4 | 777.01 ± 2 kg/m3 and 777.006 ± 2 kg/m3 | 1245.2 ± 4 | 773.283 ± 2 kg/m3 and 773.28 ± 2 kg/m3 | 1226.2 ± 4 | 769.55 ± 2 kg/m3 and 769.552 ± 2 kg/m3 | 1207.4 ± 4 | 765.81 ± 2 kg/m3 and 765.811 ± 2 kg/m3 | 1188.8 ± 4 | 762.06 ± 2 kg/m3 and 762.061 ± 2 kg/m3 | – | – | – | – | – | – | – | – | – | – | –
11 | CCCCN(CCCC)CCCC [tributylamine] + CCCCCOC(C)=O | – | – | – | – | – | – | – | – | – | – | – | – | – | – | – | – | – | – | – | – | speed of sound ([2]; 293.15 K, x1 = 1): 1264.2 ± 4 m/s; mass density ([2]; 293.15 K, x1 = 1): 777.006 ± 2 kg/m3; speed of sound ([2]; 298.15 K, x1 = 1): 1245.2 ± 4 m/s; mass density ([2]; 298.15 K, x1 = 1): 773.283 ± 2 kg/m3; speed of sound ([2]; 303.15 K, x1 = 1): 1226.2 ± 4 m/s; mass density ([2]; 303.15 K, x1 = 1): 769.552 ± 2 kg/m3; speed of sound ([2]; 308.15 K, x1 = 1): 1207.4 ± 4 m/s; mass density ([2]; 308.15 K, x1 = 1): 765.811 ± 2 kg/m3; speed of sound ([2]; 313.15 K, x1 = 1): 1188.8 ± 4 m/s; mass density ([2]; 313.15 K, x1 = 1): 762.061 ± 2 kg/m3
